Test results published in US5340815A, “2-substituted-4,6-di-tertiary-butyl-5-hydroxy-1,3-pyrimidines useful as antiinflammatory agents” (Warner-Lambert Company, priority 1993, dated 1994).

Legend:
5-Lipoxygenase = assay: ARBL whole cell 5-lipoxygenase assay (LTB4 formation, RBL-1 cells); assay type: cell-based, rat; conditions: 10 μM
Protocol: (§1) ARBL/ARBC Whole Cell 5-Lipoxygenase and Cyclooxygenase Assays The rat basophilic leukemia cell line (RBL-1) was obtained from the American Type Culture Collection (Rockville, Md.). Radioimmunoassay (RIA) kits of LTB4 and PGF2α were obtained from Amersham (Arlington Heights, Ill.) and Seragen (Boston, Mass.), respectively. All tissue culture media were obtained from GIBCO (Grand Island, N.Y.). RBL-1 cells are grown in suspension culture in Eagle's minimum essential medium supplemented with 12% fetal bovine serum at 37° C. in an incubator supplied with air-5% carbon dioxide. Cells are harvested by centrifugation. They are washed with cold phosphate buffered saline pH 7.4 (PBS; NaCl, 7.1 g; Na2 HPO4, 1.15 g; KH2 PO4, 0.2 g; and KCl, 0.2 g/l). Cells are finally suspended in PBS containing 1.0 mM calcium at a density of 2×10^6 cells/mi. Cells are incubated with and without test agent (in DMSO) (1% DMSO is without effect on arachidonic acid metabolism) for ten minutes at room temperature. Calcium ionophore A23187 (5 μM) is added and cells are incubated for 7 minutes at 37° C. The reaction is stopped by chilling the tubes on ice for 10 minutes. Cells are separated by centrifugation and the supernatant is stored at -20° Aliquots (100 μL) are analyzed for LTB4 and PGF2α using radioimmunoassay kits as provided by the supplier. […]

Cyclooxygenase = assay: ARBC whole cell cyclooxygenase assay (PGF2α formation, RBL-1 cells); assay type: cell-based, rat; conditions: 10 μM
Protocol: as §1

[1] = tested on: Carrageenan-Induced Rat Foot Paw Edema; assay: Carrageenan-induced rat foot paw edema-2 (CFE-2) assay; assay type: in vivo; conditions: 30 mg/kg, methanesulfonate salt, dosed one hour before carrageenan; edema at five hours
Protocol: Carrageenan-Induced Rat Foot Paw Edema-2 (CFE-2) Assay: Protocol
Carrageenan solution (1% w/v) is prepared by dissolving 100 mg carrageenan (Marine Colloidal Div., Springfield, N.J.) in 10 mL of sterile saline (0.9%) solution (Travenol). The solution is vortexed for 30 to 45 minutes. Animals are dosed with compound one hour before carrageenan challenge. Foot paw edema is induced by injecting 0.10 ml of the 1% carrageenan subcutaneously into the plantar portion of the right hind paw of each rat under light anesthesia. Initial foot paw volume is measured immediately following carrageenan challenge using mercury plethysmography (Buxco Electronics). Edema is measured five hours after carrageenan. The difference between the five-hour and the initial paw volume is expressed as delta edema. The delta edema for each test group of animals is used to calculate the percent inhibition of edema achieved by-the compound at the test dose compared with the vehicle control group. The ID40 (the dose at which swelling is inhibited by 40%) is calculated by probit analysis for the dose at which 40 percent inhibition occurs.

## Cc1cc(C=Cc2nc(C(C)(C)C)c(O)c(C(C)(C)C)n2)sn1 [Example 3]
5-Lipoxygenase
  ARBL, inhibition class (LTB4 formation): N* (<40% inhibition at 10 μM)
Cyclooxygenase
  ARBC, % inhibition (PGF2α formation): 60%

## CC(C)(C)c1nc(/C=C/c2cccnc2)nc(C(C)(C)C)c1O [Example 1, [E]-4,6-Bis(1,1-dimethylethyl)-2-[[2-(3-pyridinyl)]-ethenyl]-5-pyrimidinol]
5-Lipoxygenase
  ARBL, % inhibition (LTB4 formation): 100%
Cyclooxygenase
  ARBC, % inhibition (PGF2α formation): 85%
[1]
  % Inhibition of Edema: 45%
